PubChem BioAssay AID2060503 (Molecular Pharmacology Branch, DTP, NCI, 2025)

Tested on: 817829-284-R-J1-PDC complex spheroids, viability
Assay: Anticancer human tumor 817829-284-R-J1-PDC patient-derived colon adenocarcinoma cell line growth inhibition [GQUAD]
Conditions: for IC50: curve of first compound; for viability, T/C: stronger effect = lower value
Description: DNA G-quadruplex Stabilizer Agents in Combinations in Complex Spheroids
A high-throughput screen of multi-cell type tumor spheroids was designed to identify active combinations of DNA G-quadruplex stabilizer agents and targeted small molecules. Complex spheroids include a stromal component modeled by human endothelial cells (HUVEC) and fibroblasts modeled by human mesenchymal stem cells (MSCs). The concentration ranges selected for each drug and investigational agent were based upon clinically achievable concentrations if the clinical Cmax of the agent was known.
Compounds. The drugs and investigational agents: pidnarulex (CX-5461; NSC782164), APTO-253 (NSC789042), BRACO-19 (NSC847499), peposertib (NSC802822), ceralasertib (NSC780249), elimusertib (NSC800525), camonsertib (NSC841442), AZD-1390 (NSC803789), olaparib (NSC753686), talazoparib (NSC767125), ART-558 (NSC835418), sotorasib (NSC818433), MRTX-1133 (NSC836407), SN-38 (NSC673596), topotecan (NSC609699), etoposide (NSC141540), doxorubicin (NSC123127), gemcitabine (NSC613327), 5-fluorouracil (NSC19893), paclitaxel (NSC125973), vemurafenib (NSC761431), panobinostat (NSC761190), R-306465 (JNJ-16241199; NSC773264), adavosertib (NSC754352), TP-3654 (NSC805149), carboplatin (NSC241240), KSQ-4279 (NSC840948), and staurosporine (NSC755774) were obtained from the National Cancer Institute (NCI) Developmental Therapeutics Program Chemical Repository (34). The FDA-approved anticancer drug set is available from the NCI Developmental Therapeutics Program. […] The stock solutions were prepared in dimethyl sulfoxide (DMSO, Sigma-Aldrich, St. Louis, MO, cat. D2650) at 800-fold the tested concentration and stored at -70 degrees C prior to their use. All drugs and investigational agents were tested over a range starting from a high concentration at or near the clinical Cmax and decreasing in half-log increments. If the clinical Cmax for an agent had not been determined, the highest concentration tested was 10 microM.
2.3 Cell Culture. All cells were maintained in an incubator at 37 degrees C and 5% CO2 with 95% humidity. The PDC lines were cultured according to standard operating procedures established by the NCI PDMR. All PDCs were thawed and cultured in Matrigel-coated flasks prepared with a working solution of 1X Ham's F-12 nutrient mix, without supplementation (Invitrogen, cat. 11765054), 100 U/mL penicillin-streptomycin (Invitrogen, cat. 15140122), and 2.5% Matrigel (Corning Inc., cat. 354248) for the first three passages. The 857933-349-R-J2-PDC line was cultured in 6C/Colon 1B media, which includes advanced DMEM/F-12 (Thermo Fisher Scientific, cat. 12634028), 10 mM HEPES (Thermo Fisher Scientific, cat. 15630080), 1X GlutaMAX supplement (Thermo Fisher Scientific, cat. 35050061), 0.1 mg/mL primocin (InvivoGen, cat. ant-pm-2), 10% defined fetal bovine serum, heat inactivated (HyClone Laboratories Inc., cat. SH30070.03HI), 50% L-WRN conditioned media (ATCC, cat. CRL-3276), 1.25 mM N-Acetyl-L-cysteine (Sigma-Aldrich, cat. A9165), 10 mM nicotinamide (Sigma-Aldrich, cat. N0636), 1X B-27 supplement (Thermo Fisher Scientific, cat. 17504044), 1X N-2 supplement (Thermo Fisher Scientific, cat. 17502048), 10 microM Y-27632 dihydrochloride (Tocris Bioscience, cat. 1254), and 50 ng/mL human EGF recombinant protein (Thermo Fisher Scientific, cat. PHG0311). The 485176-168-R4-J1-PDC line was cultured in Panc media, which includes all 6C/Colon 1B media components plus 100 ng/mL human FGF-10 (Thermo Fisher Scientific, cat. 100-26), 500 nM SB-431542 (Selleckchem, cat. S1067), and gastrin (Tocris, cat. 3006).
[…]

[1] = second compound 0.0316 µM, first compound 0.0316 µM
[2] = second compound 0.0316 µM, first compound 0.1 µM
[3] = second compound 0.0316 µM, first compound 0.316 µM
[4] = second compound 0.0316 µM, first compound 1 µM
[5] = second compound 0.0316 µM, first compound 3.16 µM
[6] = second compound 0.0316 µM, first compound 10 µM
[7] = second compound 0.1 µM, first compound 0.0316 µM
[8] = second compound 0.1 µM, first compound 0.1 µM
[9] = second compound 0.1 µM, first compound 0.316 µM
[10] = second compound 0.1 µM, first compound 1 µM
[11] = second compound 0.1 µM, first compound 3.16 µM
[12] = second compound 0.1 µM, first compound 10 µM
[13] = second compound 0.316 µM, first compound 0.0316 µM
[14] = second compound 0.316 µM, first compound 0.1 µM
[15] = second compound 0.316 µM, first compound 0.316 µM
[16] = second compound 0.316 µM, first compound 1 µM
[17] = second compound 0.316 µM, first compound 3.16 µM
[18] = second compound 0.316 µM, first compound 10 µM
[19] = second compound 1 µM, first compound 0.0316 µM
[20] = second compound 1 µM, first compound 0.1 µM
[21] = second compound 1 µM, first compound 0.316 µM
[22] = second compound 1 µM, first compound 1 µM
[23] = second compound 1 µM, first compound 3.16 µM
[24] = second compound 1 µM, first compound 10 µM
[25] = second compound 3.16 µM, first compound 0.0316 µM
[26] = second compound 3.16 µM, first compound 0.1 µM
[27] = second compound 3.16 µM, first compound 0.316 µM
[28] = second compound 3.16 µM, first compound 1 µM
[29] = second compound 3.16 µM, first compound 3.16 µM
[30] = second compound 3.16 µM, first compound 10 µM
[31] = second compound 10 µM, first compound 0.0316 µM
[32] = second compound 10 µM, first compound 0.1 µM
[33] = second compound 10 µM, first compound 0.316 µM
[34] = second compound 10 µM, first compound 1 µM
[35] = second compound 10 µM, first compound 3.16 µM
[36] = second compound 10 µM, first compound 10 µM
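Further: spheroids exposed to agents for 7 days before readout.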
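Wherever viability, T/C is given: percent viability relative to DMSO vehicle control taken as 100%.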

CC1COCCN1c1cc(C2(O)CC3CCC(C2)O3)c2cnn(-c3ccn[nH]3)c2n1 (stereo unspecified) + Cc1[nH]c2ccc(F)cc2c1-c1nc2c3cccnc3c3ncccc3c2[nH]1
IC50 (second compound 0.0316 µM): < 31.6 nM | IC50 (second compound 0.1 µM): < 31.6 nM | IC50 (second compound 0.316 µM): < 31.6 nM | IC50 (second compound 1 µM): < 31.6 nM | IC50 (second compound 3.16 µM): < 31.6 nM | IC50 (second compound 10 µM): < 31.6 nM | viability, T/C [1]: 40.4% | viability, T/C [2]: 9.87% | viability, T/C [3]: 7.43% | viability, T/C [4]: 5.2% | viability, T/C [5]: 5.12% | viability, T/C [6]: 3.63% | viability, T/C [7]: 32% | viability, T/C [8]: 12.5% | viability, T/C [9]: 7.69% | viability, T/C [10]: 6.04% | viability, T/C [11]: 5.1% | viability, T/C [12]: 3.62% | viability, T/C [13]: 28.5% | viability, T/C [14]: 13.2% | viability, T/C [15]: 6.99% | viability, T/C [16]: 5.84% | viability, T/C [17]: 5.13% | viability, T/C [18]: 3.71% | viability, T/C [19]: 30.4% | viability, T/C [20]: 11.7% | viability, T/C [21]: 7.32% | viability, T/C [22]: 6.4% | viability, T/C [23]: 4.91% | viability, T/C [24]: 3.49% | viability, T/C [25]: 19.1% | viability, T/C [26]: 6.27% | viability, T/C [27]: 4.26% | viability, T/C [28]: 3.69% | viability, T/C [29]: 3.38% | viability, T/C [30]: 1.97% | viability, T/C [31]: 6.89% | viability, T/C [32]: 2.8% | viability, T/C [33]: 4.24% | viability, T/C [34]: 2.85% | viability, T/C [35]: 2.85% | viability, T/C [36]: 1.69%

COc1cc(C2c3cc4c(cc3C(OC3OC5COC(C)OC5C(O)C3O)C3COC(=O)C23)OCO4)cc(OC)c1O (stereo unspecified) + Cc1[nH]c2ccc(F)cc2c1-c1nc2c3cccnc3c3ncccc3c2[nH]1
IC50 (second compound 0.0316 µM): 184 nM | IC50 (second compound 0.1 µM): 216 nM | IC50 (second compound 0.316 µM): 191 nM | IC50 (second compound 1 µM): 214 nM | IC50 (second compound 3.16 µM): 113 nM | IC50 (second compound 10 µM): 44.8 nM | viability, T/C [1]: 110% | viability, T/C [2]: 67.2% | viability, T/C [3]: 31.6% | viability, T/C [4]: 27.2% | viability, T/C [5]: 28.1% | viability, T/C [6]: 10.6% | viability, T/C [7]: 95.3% | viability, T/C [8]: 91.2% | viability, T/C [9]: 29.5% | viability, T/C [10]: 31.8% | viability, T/C [11]: 26% | viability, T/C [12]: 9.21% | viability, T/C [13]: 86.7% | viability, T/C [14]: 80.4% | viability, T/C [15]: 26.4% | viability, T/C [16]: 32.7% | viability, T/C [17]: 28.9% | viability, T/C [18]: 9.89% | viability, T/C [19]: 85.6% | viability, T/C [20]: 89.7% | viability, T/C [21]: 30.7% | viability, T/C [22]: 30.4% | viability, T/C [23]: 25.1% | viability, T/C [24]: 9.74% | viability, T/C [25]: 109% | viability, T/C [26]: 54.1% | viability, T/C [27]: 16.8% | viability, T/C [28]: 15.2% | viability, T/C [29]: 17.8% | viability, T/C [30]: 3.63% | viability, T/C [31]: 60.5% | viability, T/C [32]: 26.2% | viability, T/C [33]: 9.53% | viability, T/C [34]: 8.4% | viability, T/C [35]: 6.82% | viability, T/C [36]: 2.64%

COc1ncnc(C2CC2)c1-c1ncc2cnn(Cc3ccc(-c4nc(C(F)(F)F)cn4C(C)C)cc3)c2n1 + Cc1[nH]c2ccc(F)cc2c1-c1nc2c3cccnc3c3ncccc3c2[nH]1
IC50 (second compound 0.0316 µM): > 10000 nM | IC50 (second compound 0.1 µM): > 10000 nM | IC50 (second compound 0.316 µM): > 10000 nM | IC50 (second compound 1 µM): > 10000 nM | IC50 (second compound 3.16 µM): > 10000 nM | IC50 (second compound 10 µM): 32 nM | viability, T/C [1]: 99.1% | viability, T/C [2]: 113% | viability, T/C [3]: 101% | viability, T/C [4]: 97.9% | viability, T/C [5]: 113% | viability, T/C [6]: 109% | viability, T/C [7]: 96.6% | viability, T/C [8]: 115% | viability, T/C [9]: 99.8% | viability, T/C [10]: 111% | viability, T/C [11]: 108% | viability, T/C [12]: 115% | viability, T/C [13]: 105% | viability, T/C [14]: 119% | viability, T/C [15]: 101% | viability, T/C [16]: 94.2% | viability, T/C [17]: 110% | viability, T/C [18]: 129% | viability, T/C [19]: 118% | viability, T/C [20]: 105% | viability, T/C [21]: 117% | viability, T/C [22]: 98.9% | viability, T/C [23]: 108% | viability, T/C [24]: 118% | viability, T/C [25]: 63.5% | viability, T/C [26]: 73.5% | viability, T/C [27]: 56.4% | viability, T/C [28]: 79.9% | viability, T/C [29]: 84.8% | viability, T/C [30]: 68.7% | viability, T/C [31]: 50.2% | viability, T/C [32]: 26.4% | viability, T/C [33]: 27.8% | viability, T/C [34]: 40.9% | viability, T/C [35]: 15.1% | viability, T/C [36]: 18.8%
